Read-outs that look alike come from different tables or passages of the source.
Tests used:
[1] = test system: A549 (non-small cell lung cancer); assay: NCI method SRB growth inhibition, A549; format: cell-based; conditions: Homo sapiens; A549, treated 48 hours, SRB stain
In short: (§1)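 NCI 60-line protocol, 48 h compound exposure; SRB stain, OD 515 nm. Growth % = (Ti−Tz)/(C−Tz)×100 when Ti≥Tz, else (Ti−Tz)/Tz×100. GI50 at 50, TGI at Ti=Tz, LC50 at −50.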

786-0 (renal cancer) = assay: NCI method SRB growth inhibition, 786-0; format: cell-based; conditions: Homo sapiens; 786-0, treated 48 hours, SRB stain
In short: as §1

HCT116 (colon cancer) = assay: NCI method SRB growth inhibition, HCT116; format: cell-based; conditions: Homo sapiens, HCT-116; HCT116, treated 48 hours, SRB stain
In short: as §1

K562 (leukemia) = assay: NCI method SRB growth inhibition, K562; format: cell-based; conditions: Homo sapiens; K562, treated 48 hours, SRB stain
In short: as §1

PC-3 (prostate cancer) = assay: NCI method SRB growth inhibition, PC-3; format: cell-based; conditions: Homo sapiens; PC-3, treated 48 hours, SRB stain
In short: as §1

LOX-IMVI (melanoma) = assay: NCI method SRB growth inhibition, LOX-IMVI; format: cell-based; conditions: Homo sapiens, treated 48 hours, SRB stain
In short: as §1

[2] = test system: SF295 (central nervous system tumor); assay: NCI method SRB growth inhibition, SF295; format: cell-based; conditions: Homo sapiens, SF-295; SF295, treated 48 hours, SRB stain
In short: as §1

OVCAR-3 (ovarian cancer) = assay: NCI method SRB growth inhibition, OVCAR-3; format: cell-based; conditions: Homo sapiens; OVCAR-3, treated 48 hours, SRB stain
In short: as §1

HS 578T (breast cancer) = assay: NCI method SRB growth inhibition, HS 578T; format: cell-based; conditions: Homo sapiens, HS578T, treated 48 hours, SRB stain
In short: as §1

[3] = Liver microsomes stability; format: in vitro ADME, human; conditions: for half-life at 1 μM: human, human liver microsomes
In short: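 Compound at 1 μM final incubated with 1 mg/mL human liver microsomes and 1 mM NADPH (no-NADPH control), sampled at 0, 5, 15, 30, 60 min. Remaining parent quantified by LC-MS/MS; T1/2 = 0.693/k.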

[4] = test system: breast cancer cell line SUM159 sphere; assay: Breast cancer stem cell sphere formation; format: cell-based, human; conditions: 50 nM; for formation of the sphere after cell passage: 5 days of drug treatment, then passage
Description: The inhibitory effects of embodiment compounds 5, 7, 11, 13, 14, 20 and 21 on the formation of breast cancer cell line SUM159 sphere are described as follows.
The breast cancer cell line SUM159 sphere was cultured with serum-free medium in an ultra-low adsorption plate, the basal medium was DMEM/F12 (without phenol red), and B27 (without vitamin A) (1×), EGF (20 ng/ml), bFGF (20 ng/ml) and insulin (insulin, 5 ug/ml) were added.
An equal number (4000) of SUM159 cells per well were inoculated into an ultra-low adsorption 24 plate, and the sphere was photographed after 5 days of culture, replaced with fresh medium, and treated with drugs at certain concentrations, respectively. Compounds 5, 7, 11, 13, 14, 20 and 21 were evaluated in this experiment at 50 nM, respectively. The effect of the drug on the sphere phenotype could be observed after about 3 days of drug treatment. The sphere was photographed again after 5 days of drug treatment, and then the sphere was passaged. The sphere was photographed again after 7 days of passage.
The differences of the photographs taken in three different stages were counted and compared, and the killing effect of the tested compounds on SUM159 sphere was evaluated through the differences of sphere formation after passage, thus reflecting the inhibitory effects of different compounds on breast cancer stem cells.

[5] = Metabolic stability in vivo (plasma half-life after IV); conditions: intravenously at 1 mg/kg, male BALB/c nude mice
Description: The intravenous injection group of the embodiment compound was prepared with the mixed solvent of DMA:PEG400:30% SBECD=5:25:70 to form a 0.2 mg/mL of solution, and administered intravenously at 1 mg/kg of weight; and the oral preparation group was prepared with 0.5% MC to form a 1 mg/mL of solution, and administered by oral gavage at 10 mg/kg weight.
• Male BALB/c nude mice, 4-5 weeks old, purchased from Shanghai SLAC. 3. Experiment Method: 3.1 Instruments: • Liquid chromatography system: Shimadzu liquid chromatography system Shimadzu LC-30AD • MS/MS system: Applied Biosystems API5500 • Data collection: Analyst Software 1.5.2 3.2 Chromatographic Conditions Chromatographic Column • Analytical column: Kinetex 2.6u C18 100 A column (3.0 mm×30 mm) • Mobile phase: A: 10 mM NH4OAc (0.1% FA); B: Acetonitrile with 0.1% […] • Flow rate: 1.0 mL/min
Ion source was an electron spray ionization (ESI source) with negative ion detection; spray voltage source was 5500 V; ion source gas 1 (N2) was 50 psi; ion source gas 2 (N2) was 50 psi; air curtain gas (N2) was 30 psi. Scanning mode was multiple reaction monitoring (MRM); scanning time was 80 ms; collision gas pressure was 10 psi;
Grouping experiment, with three animals in each group, starting from now on, administration was started according to the weight of the animals. Blood was collected according to 5 min, 15 min, 30 min, 1 h, 2 h, 4 h, 8 h and 24 h after administration.
To 25.0 μL of plasma, 25.0 μL of internal standard solution (Tolbutamide (250 ng/mL) in acetonitrile), 25.0 μL of acetonitrile and 100 μL of acetonitrile were added, and the mixture was vortexed for 1 min, and centrifuged for 5 min (14000 rpm). 120 μL of the resulting supernatant was added with 80.0 μL of water (containing 1% formic acid) and mixed well, then analyzed by LC/MS/MS.

[6] = 1 μM compound, 1 mg/mL human liver microsomes, 1 mM NADPH
[7] = 1 μM compound, 1 mg/mL human liver microsomes, 1 mM NADPH, read-out: T½ of HLM
[8] = as repeated in Table 4, read-out: T½ of HLM (in vitro)

Row | Structure (SMILES) | GI50 [1] | GI50 (786-0 (renal cancer)) | GI50 (HCT116 (colon cancer)) | GI50 (K562 (leukemia)) | GI50 (PC-3 (prostate cancer)) | GI50 (LOX-IMVI (melanoma)) | GI50 [2] | GI50 (OVCAR-3 (ovarian cancer)) | GI50 (HS 578T (breast cancer)) | microsomal CLint at 1 μM [3, 6] | half-life at 1 μM [3, 7] | killing effect on SUM159 sphere [4] | formation of the sphere after cell passage [4] | half-life at 1 μM [3, 8] | half-life ([5]; mouse, plasma, iv, read-out: T½ of (IV in nude mice) (converted)) | T½ of (IV in nude mice) [5]
1 | [2H]C([2H])([2H])Oc1cc(C(=O)Nc2cc3c(cc2Oc2cc(C)cc(C)c2)C(=O)N(C)[C@@H](CC(=O)N(C([2H])([2H])C([2H])([2H])[2H])C([2H])([2H])C([2H])([2H])[2H])C(=O)N3)c(Br)c(OC([2H])([2H])[2H])c1OC([2H])([2H])[2H] [Compound 13, (S)-2-bromo-N-[3-[2-[bis(pentadeuteroethyl)amino]-2-oxoethyl]-7-(3,5-dimethylphenoxy)-4-methyl-2,5-dioxo-2,3,4,5-tetrahydro-1H-benzo[e][1,4]diazepin-8-yl]-3,4,5-tris(trideuteromethoxy)benzamide] | < 5 nM | 11.5 nM | < 5 nM | < 5 nM | < 5 nM | < 5 nM | 7.5 nM | < 5 nM | < 5 nM | 14.8 µL/min/mg | 46.8 min | strong killing effect | significantly reduced |  |  | 
2 | COc1cc(C(=O)Nc2cc3c(cc2Oc2cc(C)cc(C)c2)C(=O)N[C@@H](CC(=O)N(C)C)C(=O)N3)c(Br)c(OC)c1OC [d, reference compound] |  |  |  |  |  |  |  |  |  |  |  |  |  | 100 min | 46.6 min | 
3 | CCN(CC)C(=O)C[C@H]1C(=O)Nc2cc(NC(=O)c3cc(OC)c(OC)c(OC)c3Br)c(Oc3cc(C)cc(C)c3)cc2C(=O)N1C [a, reference compound] |  |  |  |  |  |  |  |  |  | 63.1 µL/min/mg | 11 min |  |  | 11 min |  | 31.9 min
4 | [2H]C([2H])([2H])Oc1cc(C(=O)Nc2cc3c(cc2Oc2cc(C)cc(C)c2)C(=O)N(C)[C@@H](CC(=O)N(C([2H])([2H])[2H])C([2H])([2H])[2H])C(=O)N3)c(Br)c(OC([2H])([2H])[2H])c1OC([2H])([2H])[2H] [Compound 14, (S)-2-bromo-N-[3-[2-[bis(trideuteromethyl)amino]-2-oxoethyl]-7-(3,5-dimethylphenoxy)-4-methyl-2,5-dioxo-2,3,4,5-tetrahydro-1H-benzo[e][1,4]diazepin-8-yl]-3,4,5-tris(trideuteromethoxy)benzamide] | < 5 nM | 5 nM | < 5 nM | < 5 nM | < 5 nM | < 5 nM | < 5 nM | < 5 nM |  | 11.3 µL/min/mg | 61.3 min | strong killing effect | significantly reduced |  |  | 
5 | [2H]C([2H])([2H])C([2H])([2H])N(C(=O)C[C@H]1C(=O)Nc2cc(NC(=O)c3cc(OC)c(OC)c(OC)c3Br)c(Oc3cc(C)cc(C)c3)cc2C(=O)N1C)C([2H])([2H])C([2H])([2H])[2H] [Compound 11, (S)-2-bromo-N-[3-[2-[bis(pentadeuteroethyl)amino]-2-oxoethyl]-7-(3,5-dimethylphenoxy)-4-methyl-2,5-dioxo-2,3,4,5-tetrahydro-1H-benzo[e][1,4]diazepin-8-yl]-3,4,5-trimethoxybenzamide] | < 5 nM | 10.4 nM | 15.7 nM | < 5 nM | < 5 nM | < 5 nM | 10.9 nM | < 5 nM | < 5 nM | 28.2 µL/min/mg | 24.6 min | strong killing effect | significantly reduced |  |  | 
6 | [2H]C([2H])([2H])Oc1cc(C(=O)Nc2cc3c(cc2Oc2cc(C)cc(C)c2)C(=O)N[C@@H](CC(=O)N(C([2H])([2H])[2H])C([2H])([2H])[2H])C(=O)N3)c(Br)c(OC([2H])([2H])[2H])c1OC([2H])([2H])[2H] [Compound 21, (S)-2-bromo-N-[3-[2-[bis(trideuteromethyl)amino]-2-oxoethyl]-7-(3,5-dimethylphenoxy)-2,5-dioxo-2,3,4,5-tetrahydro-1H-benzo[e][1,4]diazepin-8-yl]-3,4,5-tris(trideuteromethoxy)benzamide] | 6.1 nM | 12.9 nM | < 5 nM | < 5 nM | < 5 nM | < 5 nM | 11.3 nM | < 5 nM |  |  |  | strong killing effect | significantly reduced |  |  | 
7 | [2H]C([2H])([2H])Oc1cc(C(=O)Nc2cc3c(cc2Oc2cc(C)cc(C)c2)C(=O)N[C@@H](CC(=O)N(OC)C([2H])([2H])[2H])C(=O)N3)c(Br)c(OC([2H])([2H])[2H])c1OC([2H])([2H])[2H] [Compound 41] | < 5 nM | < 5 nM | < 5 nM | < 5 nM | < 5 nM | < 5 nM | < 5 nM | < 5 nM | < 5 nM | 7.6 µL/min/mg | 91.2 min |  |  |  |  | 
8 | [2H]C([2H])([2H])C([2H])([2H])N(C(=O)C[C@@H]1NC(=O)c2cc(Oc3cc(C)cc(C)c3)c(NC(=O)c3cc(OC)c(OC)c(OC)c3Br)cc2NC1=O)C([2H])([2H])C([2H])([2H])[2H] [Compound 7, (S)-2-bromo-N-[3-[2-[bis(pentadeuteroethyl)amino]-2-oxoethyl]-7-(3,5-dimethylphenoxy)-2,5-dioxo-2,3,4,5-tetrahydro-1H-benzo[e][1,4]diazepin-8-yl]-3,4,5-trimethoxybenzamide] | < 5 nM | 6.5 nM | < 5 nM |  | < 5 nM | < 5 nM | < 5 nM | < 5 nM | 8.2 nM | 13.9 µL/min/mg | 49.9 min | strong killing effect | significantly reduced |  |  | 
